The nature of one data set: in vivo. The note with it: female, Sprague-Dawley, rat. On the procedure:
The samples were centrifuged at approximately 1,500×g (force) for 10 minutes at 2 to 8° C. to remove red blood cells and obtain ˜150 uL plasma. The plasma was divided into 2 aliquots and transferred to cryogenic vials and stored in a freezer at −80° C. prior to analysis.
For analysis, the samples were thawed on ice and mixed with 2 volumes of acetonitrile/0.5% acetic acid containing 8 ng/mL of camptothecin as internal standard. Precipitated protein was removed by centrifugation at 16,000×g for 10 min at 4° C. Sample supernatants (20 uL) were analyzed using a Phenomenex® 300 Å Jupiter 5 um 150×4.6 mm C18 HPLC column thermostatted at 40° C. using a gradient of 100 mM sodium phosphate, 3 mM heptane sulfonate, pH 4.0 (Buffer A) and 75% acetonitrile in water (Buffer B) at 1.0 mL/min. […] Sample elution was followed with a diode array detector and a fluorescence detector with excitation set at 370 nm and the emission set at 470 nm for the first 9 min followed by emission at 534 nm for the final 10 min. Concentrations were calculated by comparison of peak areas to standard curves of the conjugate (absorbance 380 nm), and SN-38 (fluorescence Ex: 370 nm; Em: 534 nm). […]
Plasma concentration versus time data for the conjugate were analyzed using a two-phase model where C(t)=A*exp(−αt)+B*exp(−βt) where A+B=dose/Vd. […]

For data set [1] the following is noted: cited from earlier work.
The conditions of data set [2]: ionization of the 10-OH; cited from earlier work.
The conditions of data set [3]: fold more active than irinotecan; cited from earlier work.
The conditions of data set [4]: cited from earlier work. The source holds these as a separate data set.
Data set [5] in a line: Pharmacokinetic model prediction for human using allometric scaling. The note with it: estimated by allometric scaling.

Molecules are shown by their SMILES. Values joined by “and” are separate entries in the source; they are usually repeats but may differ in a detail not shown here. Equal entries are not always repeated. Where two headings read alike, the source gives them in different places.

Consider `CCc1c2c(nc3ccc(O)cc13)-c1cc3c(c(=O)n1C2)COC(=O)[C@]3(O)CC` [SN-38, 7-ethyl-10-hydroxycamptothecin], for which, in the data set “in vivo”, the half-life is 15 min and the “kc1, elimination of free SN-38 from the plasma” value is 2.77 h⁻¹. Also, the aqueous solubility in data set [1] (aqueous / water) is 18 µM and 17 µM. The aqueous solubility in data set [1] (in water) was 7 µg/mL. Also, the pKa in data set [2] is around 8.6. The “activity relative to irinotecan” value in data set [3] was around 1000 ×. Besides, the “volume of distribution Vd, reported value” in data set [4] is given as 0.18 L/kg. Further, in data set [5], the Vss is around 0.15 L/kg; the “kc1, elimination rate constant” value is around 0.7 h⁻¹; the “kc1 t1/2” value was around 60 min.

One may read the half-life as the time in which the quantity being followed falls by half. Lower therefore signals fast loss. Usually aqueous solubility stands for the concentration that dissolves in the medium under given conditions. The term pKa denotes the pH at which an ionisable group is half protonated. The term Vss denotes a proportionality between amount in the body and measured concentration, not a real space.

The record behind these values is patent publication US10342792B2, “Slow-release conjugates of SN-38” (ProLynx LLC, priority 2013, dated 2019).
